For one test, the system named is P. tricornutum. The method, then: (§1) A. Re-supply Experiment: For both colimitation experiments (T. pseudonana and P. tricornutum), each remaining culture was split in four just after the protein harvest time point. For the T. pseudonana study, the cultures were re-supplied with either 1) nothing, 2) 100 pM B12, 3) 400 nM Fetotal, or 4) both 100 pM B12 and 400 nM Fe. For the P. tricornutum study, the cultures were re-supplied with either 1) nothing, 2) 100 pM B12, 3) 100 nM Fetotal, or 4) both 100 pM B12 and 100 nM Fe.
(§2) For both studies, each culture was monitored for growth via in vivo fluorescence.

The subject of a further test is T. pseudonana. The test can be described thus: Re-supply experiment, growth via in vivo fluorescence. It counts as cell-based, Thalassiosira pseudonana. On the procedure: as §1, §2
For the next test, the system named is P. tricornutum cells. The test can be described thus: Cobalamin (57Co-B12) uptake rate in P. tricornutum cell lines overexpressing CBA1. The class given is cell-based, Phaeodactylum tricornutum. The note with it: CBA1 overexpression vs wild type and Urease-OE1; exponentially growing cells, B12-replete (100 pM B12), 24 hours. On the procedure:
B12 Uptake Rate Assessments: Inorganic ^57Co was removed from a carrier-free ^57Co-B12 stock solution (MP Biomedicals) via Chelex-100 (Price et al. (1988/1989) “Preparation and Chemistry of the Artificial Algal Culture Medium Aquil,” Biol Oceanogr 6: 443-461) and the remaining solution was used as a radiotracer in cultures of P. tricornutum. Strains (wild type, two cell lines overexpressing CBA1_48322 and one line overexpressing urease) were grown through three successive transfers into media as described above, with 100 pM B12 and 80 μg/mL zeocin added (zeocin not added to wild type). When the cells were in mid-exponential growth in the third transfer, each strain was used to inoculate (3%) three 28 mL polycarbonate tubes containing 20 mL of growth media with 100 pM B12 and 80 μg/mL zeocin and allowed to acclimate for 3 hours. […] B12 uptake was measured by assessing the percentage of added tracer that was taken up into the particulate fraction via gamma counting as previously described (Bertrand et al. (2007) supra) and assuming that total B12 concentrations were 100 pM for the period of uptake. Cell growth was monitored by fluorescence and then translated to cell number via calibration curves created during growth of the 3rd transfer. […]

Like-named read-outs stand apart in the source and are kept apart here.

As for iron, the growth after re-supply result in the test with P. tricornutum (low cobalamin/low Fe culture, iron addition alone (100 nM Fe total)) is reported as “rescued”; in the test on P. tricornutum (low iron culture re-supplied with 100 nM Fe total), “rescued the growth”; with T. pseudonana (low iron culture re-supplied with 400 nM Fe total), “rescued the growth”. As to `C/C1=C2/[N-][C@H]([C@H](CC(N)=O)[C@@]2(C)CCC(=O)NC[C@H](C)OP(=O)([O-])O[C@H]2[C@@H](O)[C@@H](n3cnc4cc(C)c(C)cc43)O[C@@H]2CO)[C@]2(C)N=C(/C(C)=C3N=C(/C=C4N=C1[C@@H](CCC(N)=O)C\4(C)C)[C@@H](CCC(N)=O)[C@]\3(C)CC(N)=O)[C@@H](CCC(N)=O)[C@]2(C)CC(N)=O.[Co+2]` (stereo in doubt) [cobalamin], the growth after re-supply result in the test on T. pseudonana (low cobalamin culture re-supplied with 100 pM B12) is “rescued the growth”.

B1: CBA1: cobalamin acquisition protein of P. tricornutum (isoform Pt48322), overexpressed as a YFP fusion in the native host (protein, listed as Phaeodactylum tricornutum)
chain: DEPPACLTSTADLSVDIFTDKVEPLFSQGWNVTYHNTYKIANNLFDNTTYLLYQCGSTPPADVVDNGNFNAVLEIPLSNVGLSQTPHIGFMEQLELVDEIAAFLTDTDFISSPCFLDEIAAGNVLTLVEPSEGVDAPATGNTALSAGTVAFVASFTQVPFDNTVNIQEYSELTNVAVFEWVKFFSVFFNKEHTANQVVEAAESRFDCVAQNAGAVQADNMPVKPVVLWAYYSDFCGGWDVAECPNYYCEFANACGAEIISSTEGNTTVCGAPYMTTEELVELGKDADHWIYPSSNWDTASETFGEQLQNMKAVQDQQVFDYQASGENAWFEQRYAEYYNVLADFCAVVGTTQPLTGRSWFRNVFTEPVGSLPDCSPTQSANILDDVHICFLPTTGGAAAGGGSGSGGSSAKAIAVGTAALAAGLLSLIHVLLF
modifications: YFP fusion
notes: cobalamin acquisition protein of P. tricornutum (isoform Pt48322), overexpressed as a YFP fusion in the native host
On to B1, for which the “enhancement of cell specific radiolabeled cobalamin uptake rates” value in the test with P. tricornutum cells fell in the range of 2 to 3 fold.
